From the NIST ThermoML archive (doi:10.1016/j.tca.2015.12.011)
Numbers after ± are expanded uncertainties.

Experiment: excess molar enthalpy (molar enthalpy of mixing); xn = mol fraction of the nth substance listed
Conditions: 100 kPa, Liquid, Calvet calorimetry

[Li] [lithium] + [Ga]
Conditions	excess molar enthalpy [kcal/mol]
891 K, x1 = 0.7508	-4.11 ± 0.191
993 K, x1 = 0.1014	-1.39 ± 0.0956
993 K, x1 = 0.2531	-3.23 ± 0.0956
1018 K, x1 = 0.7505	-3.9 ± 0.143
1044 K, x1 = 0.4035	-4.64 ± 0.0717
1044 K, x1 = 0.5023	-5.04 ± 0.12
1044 K, x1 = 0.6005	-5.04 ± 0.167
